Laboratory results as given in article PMC3191288 (Matrix biology : journal of the International Society for …, 2011).
Blank lines part the entries; values can stand above or below the molecule they belong to.

Assays:
[1] = tested on: proMMP-2 activation by HT1080 cell membranes; test: Activation of purified proMMP-2 by isolated HT1080 cell membranes; format: biochemical, human; details: peptide 3.7–100 μM, 16 h at 22 °C, pH 7.4; repeated at least 3 times
[2] = tested on: collagen binding domain of MMP-2 (CBD); test: Surface plasmon resonance, CBD over immobilized peptide; design: species or system human; details: CBD 10 μM over immobilized peptide, SPR
[3] = molecular target: T1, PEX (hemopexin domain of MMP-2) (Homo sapiens, UniProt P08253); test: Surface plasmon resonance, PEX over immobilized peptide; format: binding; details: PEX 0.3–10 μM over immobilized peptide, SPR
T1 sequence (P08253 446-660): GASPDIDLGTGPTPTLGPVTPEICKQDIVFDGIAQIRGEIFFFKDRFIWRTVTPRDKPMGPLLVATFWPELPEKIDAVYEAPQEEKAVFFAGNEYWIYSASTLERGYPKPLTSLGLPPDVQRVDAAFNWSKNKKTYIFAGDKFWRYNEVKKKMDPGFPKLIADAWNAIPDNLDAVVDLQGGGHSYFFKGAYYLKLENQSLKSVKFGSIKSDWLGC

[4] = tested on: proMMP-2 activation in HT1080 fibrosarcoma cells; test: Cell surface activation of proMMP-2 in Con A stimulated HT1080 cell culture; format: cell-based, human; details: Con A 20 μg/ml, 0 nM C-TIMP-2
[5] = molecular target: recombinant human MMP-2^E404A (human) (UniProt P08253); test: ELISA
[6] = molecular target: recombinant full-length TIMP-2 (human (plasmid pGWIGH/htimp-2)) (UniProt P16035); test: ELISA
proMMP-2 activation = details: ref Strongin et al., 1995; cited from earlier work
[7] = molecular target: recombinant full-length TIMP-2 (human (plasmid pGWIGH/htimp-2), UniProt P16035 27-220); test: ELISA
Sequence of recombinant full-length TIMP-2 (P16035 27-220): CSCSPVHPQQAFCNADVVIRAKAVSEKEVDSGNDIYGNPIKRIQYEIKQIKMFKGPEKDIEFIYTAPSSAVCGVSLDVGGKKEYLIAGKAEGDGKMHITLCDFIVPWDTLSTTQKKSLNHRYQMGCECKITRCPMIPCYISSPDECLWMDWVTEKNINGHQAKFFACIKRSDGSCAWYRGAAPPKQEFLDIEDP

Sequence of recombinant full-length TIMP-2 (human (plasmid pGWIGH/htimp-2)) (P16035 27-220): as above

Molecule: CAWYRGAAPPK [P175S]
inhibition of proMMP-2 activation by peptide [1]: did not have any inhibitory effect on the cell membrane- mediated activation of proMMP-2
binding of CBD to peptide [2]: did not bind
binding of PEX to peptide [3]: consistently very weak

Molecule: concanavalin A [Con A]
activated MMP-2 band intensity [4]: 34,199 RDU
non-activated MMP-2 band intensity [4]: 3,439 RDU
proMMP-2 activated by Con A [4]: > 90%

Molecule: tissue inhibitor of matrix metalloproteinase 2 [TIMP-2]
concentration at which full-length TIMP-2 inhibited activation of proMMP-2 (proMMP-2 activation): greater than 285 nM

Results, then the molecule that gave them:

IC50 [5]: 5000 nM
Kd [5]: 390 nM
Molecule: recombinant carboxyl-terminal domain of TIMP-2 (C-TIMP-2) (from UniProt P16035 154-220) (domain or fragment)

EC50 [6]: 50 nM
Molecule: recombinant human MMP-2^E404A (from UniProt P08253 30-660) (enzyme)

EC50 [7]: 150 nM
B1: hemopexin-like domain of MMP-2 (PEX) (domain or fragment, human, UniProt P08253 446-660, looked up)
chain: T1 sequence (P08253 446-660)
modifications: biotinylated (sites not given) in the assays on coated TIMP-2; unlabeled when coated and in SPR
